Laboratory results: ChEMBL document CHEMBL3885861, “Open TG-GATES”

Species on record: Rattus norvegicus
Assay: Open TG-GATES - Regimen: Daily Repeat
Type: toxicity, organism-based, Sprague-Dawley
Design: regimen Daily Repeat, gender Male, age 6 weeks
Conditions: in vivo, po, 1000 mg/kg, route gavage, dose level Middle; for APTT / Bas / Eos / Fbg / Hb / Ht / Lym / MCH / MCHC / MCV / Mono / Neu / PT / Plat / RBC / Ret / WBC: tissue Blood; for KIDNEY_L / KIDNEY_R / KIDNEY_TOTAL: tissue Kidney; for LIVER: tissue Liver; for A/G / ALP / ALT / AST / BUN / CRE / Ca / Cl / DBIL / GLC / IP / K / LDH / Na / PL / RALB / TBIL / TC / TG / TP / gamma-GTP: tissue Plasma

## COc1ccc(O)c(C(C)(C)C)c1.COc1ccc(O)cc1C(C)(C)C [BUTYLATED HYDROXYANISOLE]
72 h, time 3 day
  TERMINAL_BW: 219.1 g
  APTT: 16.1 s
  Bas: 0.3%
  Eos: 0.7%
  Fbg: 310.6 mg/dL
  Hb: 12.6 g/dL
  Ht: 36.7%
  Lym: 75.6%
  MCH: 20.5 pg
  MCHC: 34.3%
  MCV: 59.6 fL
  Mono: 3.1%
  Neu: 19.4%
  PT: 10.9 s
  Plat: 134.7 x10_4/uL
  RBC: 615.6 x10_4/ul
  Ret: 3.6%
  WBC: 130.3 x10_2/uL
  KIDNEY_L: 1 g
  KIDNEY_R: 0.9 g
  KIDNEY_TOTAL: 1.9 g
  LIVER: 15 g
  A/G: 0.8
  ALP: 1334 IU/L
  ALT: 44.6 IU/L
  AST: 65.6 IU/L
  BUN: 16 mg/dL
  CRE: 0.2 mg/dL
  Ca: 11.5 mg/dL
  Cl: 104.6 meq/L
  DBIL: 0.028 mg/dL
  GLC: 171.4 mg/dL
  IP: 7 mg/dL
  K: 3.9 meq/L
  LDH: 71.8 IU/L
  Na: 142.4 meq/L
  PL: 200.8 mg/dL
  RALB: 2.6 g/dL
  TBIL: 0.092 mg/dL
  TC: 115.2 mg/dL
  TG: 76.2 mg/dL
  TP: 5.9 g/dL
  gamma-GTP: 1.6 IU/L
[…], time 7 day
  TERMINAL_BW: 247 g
  APTT: 16.2 s
  Bas: 0.3%
  Eos: 0.6%
  Fbg: 341 mg/dL
  Hb: 13.3 g/dL
  Ht: 38.5%
  Lym: 79%
  MCH: 20.6 pg
  MCHC: 34.5%
  MCV: 59.7 fL
  Mono: 2%
  Neu: 17.1%
  PT: 11.6 s
  Plat: 156.6 x10_4/uL
  RBC: 645.8 x10_4/ul
  Ret: 5.7%
  WBC: 119.3 x10_2/uL
  KIDNEY_L: 1 g
  KIDNEY_R: 1 g
  KIDNEY_TOTAL: 2 g
  LIVER: 13.6 g
  A/G: 0.8
  ALP: 1105 IU/L
  ALT: 35.6 IU/L
  AST: 56.8 IU/L
  BUN: 16.4 mg/dL
  CRE: 0.2 mg/dL
  Ca: 11.3 mg/dL
  Cl: 105.4 meq/L
  DBIL: 0.024 mg/dL
  GLC: 171.8 mg/dL
  IP: 6.8 mg/dL
  K: 3.7 meq/L
  LDH: 62.8 IU/L
  Na: 143 meq/L
  PL: 188.2 mg/dL
  RALB: 2.8 g/dL
  TBIL: 0.054 mg/dL
  TC: 103.4 mg/dL
  TG: 144.4 mg/dL
  TP: 6.4 g/dL
  gamma-GTP: 1.2 IU/L
[…], time 14 day
  TERMINAL_BW: 309.8 g
  APTT: 19.6 s
  Bas: 0.3%
  Eos: 0.7%
  Fbg: 334.2 mg/dL
  Hb: 13.6 g/dL
  Ht: 39.6%
  Lym: 76.3%
  MCH: 19.9 pg
  MCHC: 34.3%
  MCV: 57.9 fL
  Mono: 2.4%
  Neu: 19.6%
  PT: 11.8 s
  Plat: 132.4 x10_4/uL
  RBC: 684.8 x10_4/ul
  Ret: 3.9%
  WBC: 105.1 x10_2/uL
  KIDNEY_L: 1.2 g
  KIDNEY_R: 1.1 g
  KIDNEY_TOTAL: 2.3 g
  LIVER: 18 g
  A/G: 0.7
  ALP: 1071.8 IU/L
  ALT: 36.8 IU/L
  AST: 56.8 IU/L
  BUN: 19 mg/dL
  CRE: 0.2 mg/dL
  Ca: 11.1 mg/dL
  Cl: 105 meq/L
  DBIL: 0.022 mg/dL
  GLC: 169 mg/dL
  IP: 5.9 mg/dL
  K: 3.8 meq/L
  LDH: 50 IU/L
  Na: 143.6 meq/L
  PL: 199.8 mg/dL
  RALB: 2.8 g/dL
  TBIL: 0.046 mg/dL
  TC: 103 mg/dL
  TG: 164.8 mg/dL
  TP: 6.6 g/dL
  gamma-GTP: 1.8 IU/L
[…], time 28 day
  TERMINAL_BW: 393.4 g
  APTT: 20.3 s
  Bas: 0.4%
  Eos: 1%
  Fbg: 290.2 mg/dL
  Hb: 14.7 g/dL
  Ht: 41.5%
  Lym: 77.6%
  MCH: 19.5 pg
  MCHC: 35.4%
  MCV: 55 fL
  Mono: 1.8%
  Neu: 18.4%
  PT: 12.1 s
  Plat: 119.1 x10_4/uL
  RBC: 754.6 x10_4/ul
  Ret: 2.2%
  WBC: 117.9 x10_2/uL
  KIDNEY_L: 1.3 g
  KIDNEY_R: 1.3 g
  KIDNEY_TOTAL: 2.6 g
  LIVER: 20 g
  A/G: 0.7
  ALP: 853 IU/L
  ALT: 35.6 IU/L
  AST: 55.6 IU/L
  BUN: 17.4 mg/dL
  CRE: 0.3 mg/dL
  Ca: 11.2 mg/dL
  Cl: 104.4 meq/L
  DBIL: 0.018 mg/dL
  GLC: 183.8 mg/dL
  IP: 5.8 mg/dL
  K: 3.4 meq/L
  LDH: 58.2 IU/L
  Na: 145.2 meq/L
  PL: 161 mg/dL
  RALB: 2.7 g/dL
  TBIL: 0.058 mg/dL
  TC: 88.4 mg/dL
  TG: 115.4 mg/dL
  TP: 6.5 g/dL
  gamma-GTP: 1.4 IU/L
